According to PubChem BioAssay (NCI):
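96-well plates; 48 h exposure; 5 concentrations. Endpoints by linear interpolation between flanking doses. Not reached: highest tested concentration assigned. Here, GI50 denotes the concentration required for 50% inhibition of growth. Definition used: TGI = concentration required for complete inhibition of growth.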

Key:
Test in all cases: growth of human tumour cells (NCI), 48 h
[1] = tested on: 786-0 renal
[2] = tested on: A549 NSCLC
[3] = tested on: T-47D breast
[4] = tested on: HCT-116 colon
[5] = tested on: CCRF-CEM leukemia
[6] = tested on: MCF7 breast
[7] = tested on: SNB-75 CNS
[8] = tested on: MDA-MB-435
[9] = tested on: COLO 205 colon
[10] = tested on: HOP-62 NSCLC
[11] = tested on: PC-3 prostate
[12] = tested on: SK-MEL-28 melanoma
[13] = tested on: UACC-257 melanoma
[14] = tested on: SNB-19 CNS
[15] = tested on: OVCAR-4 ovarian
[16] = tested on: NCI-H23 lung
[17] = tested on: OVCAR-3 ovarian
[18] = tested on: NCI-H522 lung
[19] = tested on: SK-MEL-5 melanoma
[20] = tested on: SK-MEL-2 melanoma
[21] = tested on: NCI-H460 lung
[22] = tested on: CAKI-1 renal
[23] = tested on: UACC-62 melanoma
[24] = tested on: SW-620 colon
[25] = tested on: LOX IMVI melanoma
[26] = tested on: UO-31 renal
[27] = tested on: MDA-MB-231 breast
[28] = tested on: HCT-15 colon
[29] = tested on: HL-60(TB) leukemia
[30] = tested on: NCI/ADR-RES ovarian
[31] = tested on: U251 CNS
[32] = tested on: DU-145 prostate
[33] = tested on: RPMI-8226 leukemia
[34] = tested on: OVCAR-5 ovarian
[35] = tested on: ACHN renal
[36] = tested on: HS 578T breast
[37] = tested on: HT29 colon
[38] = tested on: BT-549 breast
[39] = tested on: RXF 393 renal
[40] = tested on: A498 renal
[41] = tested on: SN12C renal
[42] = tested on: SR leukemia
[43] = tested on: EKVX NSCLC
[44] = tested on: SF-268 CNS
[45] = tested on: MOLT-4 leukemia
[46] = tested on: HCC-2998 colon
[47] = tested on: MALME-3M melanoma
[48] = tested on: NCI-H226 lung
[49] = tested on: SF-295 CNS
[50] = tested on: TK-10 renal
[51] = tested on: SK-OV-3 ovarian
[52] = tested on: IGROV1 ovarian
[53] = tested on: KM12 colon
[54] = tested on: M14 melanoma
[55] = tested on: SF-539 CNS
[56] = tested on: K-562 leukemia
[57] = tested on: HOP-92 NSCLC
[58] = tested on: OVCAR-8 ovarian

**Q.** Which results are given for `COc1ccc2c(c1)OC(N)=C(C#N)C2c1ccc(F)c(F)c1` (stereo unspecified)?
**A.** GI50 [1]: 595 nM; TGI [1]: > 96.6 µM; GI50 [2]: 706 nM; TGI [2]: > 100 µM; GI50 [3]: 334 nM; TGI [3]: > 55.3 µM; GI50 [4]: 410 nM; TGI [4]: 25.5 µM; GI50 [5]: 409 nM; TGI [5]: > 100 µM; GI50 [6]: 333 nM; TGI [6]: > 67.8 µM; GI50 [7]: 186 nM; TGI [7]: 4.87 µM; GI50 [8]: 133 nM; TGI [8]: 664 nM; GI50 [9]: 437 nM; TGI [9]: 5.2 µM; GI50 [10]: 515 nM; TGI [10]: > 92.2 µM; GI50 [11]: 569 nM; TGI [11]: > 100 µM; GI50 [12]: 3.43 µM; TGI [12]: > 100 µM; GI50 [13]: 408 nM; TGI [13]: > 100 µM; GI50 [14]: 580 nM; TGI [14]: > 100 µM; GI50 [15]: 2330 nM; TGI [15]: > 100 µM; GI50 [16]: 1150 nM; TGI [16]: > 100 µM; GI50 [17]: 324 nM; TGI [17]: 3.4 µM; GI50 [18]: 255 nM; TGI [18]: 9.25 µM; GI50 [19]: 415 nM; TGI [19]: 29.7 µM; GI50 [20]: 343 nM; TGI [20]: > 93.7 µM; GI50 [21]: 410 nM; TGI [21]: 41.6 µM; GI50 [22]: 394 nM; TGI [22]: > 100 µM; GI50 [23]: 418 nM; TGI [23]: > 100 µM; GI50 [24]: 398 nM; TGI [24]: > 100 µM; GI50 [25]: 589 nM; TGI [25]: > 100 µM; GI50 [26]: 648 nM; TGI [26]: > 100 µM; GI50 [27]: 1330 nM; TGI [27]: 62.1 µM; GI50 [28]: 348 nM; TGI [28]: > 59 µM; GI50 [29]: 272 nM; TGI [29]: 716 nM; GI50 [30]: 351 nM; TGI [30]: 10.7 µM; GI50 [31]: 425 nM; TGI [31]: > 45.5 µM; GI50 [32]: 522 nM; TGI [32]: > 46.5 µM; GI50 [33]: 455 nM; TGI [33]: 31.7 µM; GI50 [34]: 2840 nM; TGI [34]: > 100 µM; GI50 [35]: 564 nM; TGI [35]: > 72.8 µM; GI50 [36]: 426 nM; TGI [36]: > 46.3 µM; GI50 [37]: 318 nM; TGI [37]: 4.77 µM; GI50 [38]: 598 nM; TGI [38]: 65.6 µM; GI50 [39]: 365 nM; TGI [39]: 5.57 µM; GI50 [40]: 231 nM; TGI [40]: 5.96 µM; GI50 [41]: 718 nM; TGI [41]: > 70.6 µM; GI50 [42]: 325 nM; TGI [42]: > 52.2 µM; GI50 [43]: 751 nM; TGI [43]: > 100 µM; GI50 [44]: 754 nM; TGI [44]: > 65.4 µM; GI50 [45]: 550 nM; TGI [45]: > 100 µM; GI50 [46]: 2500 nM; TGI [46]: > 44.9 µM; GI50 [47]: 619 nM; TGI [47]: 77.4 µM; GI50 [48]: 19.2 µM; TGI [48]: > 100 µM; GI50 [49]: 393 nM; TGI [49]: > 52.4 µM; GI50 [50]: 14.7 µM; TGI [50]: > 100 µM; GI50 [51]: 495 nM; TGI [51]: > 64.1 µM; GI50 [52]: 715 nM; TGI [52]: > 100 µM; GI50 [53]: 349 nM; TGI [53]: 26 µM; GI50 [54]: 325 nM; TGI [54]: > 100 µM; GI50 [55]: 271 nM; TGI [55]: 1050 nM; GI50 [56]: 257 nM; TGI [56]: > 100 µM; GI50 [57]: 6.53 µM; TGI [57]: 69.3 µM; GI50 [58]: 602 nM; TGI [58]: > 44.3 µM
